Paper PMC7451048 (Drug metabolism letters, 2019)

Tests used:
[1] = ref [14], [15]; cited from earlier work
[2] = target: P-gp (Homo sapiens, UniProt P08183); assay: Plasma membrane vesicle transport assay, P-gp vesicles; type: in vitro ADME; details: for Difference in P-gp vesicle uptake between ATP and AMP: 10 μM, 1 min (Fig. 9)
[3] = target: T1, OATP1B1 (Homo sapiens, UniProt Q9Y6L6)
T1 sequence (Q9Y6L6 1-691): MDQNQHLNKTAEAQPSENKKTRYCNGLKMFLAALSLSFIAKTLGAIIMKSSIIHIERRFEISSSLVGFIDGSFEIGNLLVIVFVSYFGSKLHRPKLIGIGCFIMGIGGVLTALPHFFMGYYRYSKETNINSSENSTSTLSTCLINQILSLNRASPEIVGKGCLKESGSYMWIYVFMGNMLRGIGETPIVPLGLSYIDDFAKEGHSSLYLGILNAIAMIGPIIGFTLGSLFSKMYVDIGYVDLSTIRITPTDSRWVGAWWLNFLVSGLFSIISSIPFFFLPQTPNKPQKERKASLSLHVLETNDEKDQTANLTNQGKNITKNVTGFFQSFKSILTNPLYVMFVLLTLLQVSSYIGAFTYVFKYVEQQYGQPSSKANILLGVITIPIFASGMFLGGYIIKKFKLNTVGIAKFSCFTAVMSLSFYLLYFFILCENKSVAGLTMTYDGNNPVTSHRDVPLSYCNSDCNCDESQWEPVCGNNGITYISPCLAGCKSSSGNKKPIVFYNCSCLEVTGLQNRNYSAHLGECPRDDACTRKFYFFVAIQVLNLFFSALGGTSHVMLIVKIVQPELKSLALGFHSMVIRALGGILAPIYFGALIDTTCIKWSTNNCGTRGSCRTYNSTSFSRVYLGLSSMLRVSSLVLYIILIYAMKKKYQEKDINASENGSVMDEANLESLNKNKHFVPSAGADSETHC

[4] = target: T2, OCT1 (Homo sapiens, UniProt O15245); assay: Cellular uptake assay, HEK/OCT1 vs HEK empty vector cells
T2 sequence (O15245 1-554): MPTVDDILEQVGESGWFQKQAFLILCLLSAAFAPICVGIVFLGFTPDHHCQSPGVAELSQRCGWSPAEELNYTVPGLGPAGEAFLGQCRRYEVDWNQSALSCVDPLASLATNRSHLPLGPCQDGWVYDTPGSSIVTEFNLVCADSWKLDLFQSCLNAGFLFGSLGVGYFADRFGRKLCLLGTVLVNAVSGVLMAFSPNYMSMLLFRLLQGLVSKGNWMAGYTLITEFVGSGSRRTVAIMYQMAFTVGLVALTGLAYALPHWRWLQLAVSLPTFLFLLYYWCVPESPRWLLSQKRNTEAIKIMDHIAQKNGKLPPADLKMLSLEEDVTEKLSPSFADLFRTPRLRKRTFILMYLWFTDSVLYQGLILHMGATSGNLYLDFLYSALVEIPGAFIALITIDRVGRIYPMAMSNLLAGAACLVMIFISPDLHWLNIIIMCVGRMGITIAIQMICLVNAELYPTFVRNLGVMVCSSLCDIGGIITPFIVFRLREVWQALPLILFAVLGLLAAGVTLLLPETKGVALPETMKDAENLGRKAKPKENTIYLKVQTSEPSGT

[5] = target: T3, BCRP (Homo sapiens, UniProt Q9UNQ0); assay: Plasma membrane vesicle transport assay, BCRP vesicles; type: in vitro ADME; details: for Difference in BCRP vesicle uptake between ATP and AMP: 10 μM, 1 min (Fig. 9)
T3 sequence (Q9UNQ0 1-655): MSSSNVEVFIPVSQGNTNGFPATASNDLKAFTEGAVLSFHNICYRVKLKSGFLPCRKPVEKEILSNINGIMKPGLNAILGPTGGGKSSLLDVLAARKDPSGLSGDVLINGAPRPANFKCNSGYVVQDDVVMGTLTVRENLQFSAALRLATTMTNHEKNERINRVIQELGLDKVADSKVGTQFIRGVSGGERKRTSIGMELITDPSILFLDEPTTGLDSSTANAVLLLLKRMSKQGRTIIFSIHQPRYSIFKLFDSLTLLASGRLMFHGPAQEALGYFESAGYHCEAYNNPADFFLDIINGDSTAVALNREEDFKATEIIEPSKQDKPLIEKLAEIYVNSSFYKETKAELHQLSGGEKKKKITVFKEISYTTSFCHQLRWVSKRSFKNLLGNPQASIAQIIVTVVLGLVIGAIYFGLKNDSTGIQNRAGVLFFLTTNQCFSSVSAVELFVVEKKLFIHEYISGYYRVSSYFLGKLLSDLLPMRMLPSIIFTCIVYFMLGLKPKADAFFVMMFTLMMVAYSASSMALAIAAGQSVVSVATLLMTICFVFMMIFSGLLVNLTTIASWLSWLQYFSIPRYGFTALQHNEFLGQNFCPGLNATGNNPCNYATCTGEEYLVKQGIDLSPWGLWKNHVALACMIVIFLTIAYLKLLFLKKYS

[6] = target: MRP2 (Homo sapiens, UniProt Q92887); assay: Plasma membrane vesicle transport assay, MRP2 vesicles; details: for Difference in MRP2 vesicle uptake between ATP and AMP: 10 μM, 1 min (Fig. 9)
Chain of MRP2 (Q92887 whole entry): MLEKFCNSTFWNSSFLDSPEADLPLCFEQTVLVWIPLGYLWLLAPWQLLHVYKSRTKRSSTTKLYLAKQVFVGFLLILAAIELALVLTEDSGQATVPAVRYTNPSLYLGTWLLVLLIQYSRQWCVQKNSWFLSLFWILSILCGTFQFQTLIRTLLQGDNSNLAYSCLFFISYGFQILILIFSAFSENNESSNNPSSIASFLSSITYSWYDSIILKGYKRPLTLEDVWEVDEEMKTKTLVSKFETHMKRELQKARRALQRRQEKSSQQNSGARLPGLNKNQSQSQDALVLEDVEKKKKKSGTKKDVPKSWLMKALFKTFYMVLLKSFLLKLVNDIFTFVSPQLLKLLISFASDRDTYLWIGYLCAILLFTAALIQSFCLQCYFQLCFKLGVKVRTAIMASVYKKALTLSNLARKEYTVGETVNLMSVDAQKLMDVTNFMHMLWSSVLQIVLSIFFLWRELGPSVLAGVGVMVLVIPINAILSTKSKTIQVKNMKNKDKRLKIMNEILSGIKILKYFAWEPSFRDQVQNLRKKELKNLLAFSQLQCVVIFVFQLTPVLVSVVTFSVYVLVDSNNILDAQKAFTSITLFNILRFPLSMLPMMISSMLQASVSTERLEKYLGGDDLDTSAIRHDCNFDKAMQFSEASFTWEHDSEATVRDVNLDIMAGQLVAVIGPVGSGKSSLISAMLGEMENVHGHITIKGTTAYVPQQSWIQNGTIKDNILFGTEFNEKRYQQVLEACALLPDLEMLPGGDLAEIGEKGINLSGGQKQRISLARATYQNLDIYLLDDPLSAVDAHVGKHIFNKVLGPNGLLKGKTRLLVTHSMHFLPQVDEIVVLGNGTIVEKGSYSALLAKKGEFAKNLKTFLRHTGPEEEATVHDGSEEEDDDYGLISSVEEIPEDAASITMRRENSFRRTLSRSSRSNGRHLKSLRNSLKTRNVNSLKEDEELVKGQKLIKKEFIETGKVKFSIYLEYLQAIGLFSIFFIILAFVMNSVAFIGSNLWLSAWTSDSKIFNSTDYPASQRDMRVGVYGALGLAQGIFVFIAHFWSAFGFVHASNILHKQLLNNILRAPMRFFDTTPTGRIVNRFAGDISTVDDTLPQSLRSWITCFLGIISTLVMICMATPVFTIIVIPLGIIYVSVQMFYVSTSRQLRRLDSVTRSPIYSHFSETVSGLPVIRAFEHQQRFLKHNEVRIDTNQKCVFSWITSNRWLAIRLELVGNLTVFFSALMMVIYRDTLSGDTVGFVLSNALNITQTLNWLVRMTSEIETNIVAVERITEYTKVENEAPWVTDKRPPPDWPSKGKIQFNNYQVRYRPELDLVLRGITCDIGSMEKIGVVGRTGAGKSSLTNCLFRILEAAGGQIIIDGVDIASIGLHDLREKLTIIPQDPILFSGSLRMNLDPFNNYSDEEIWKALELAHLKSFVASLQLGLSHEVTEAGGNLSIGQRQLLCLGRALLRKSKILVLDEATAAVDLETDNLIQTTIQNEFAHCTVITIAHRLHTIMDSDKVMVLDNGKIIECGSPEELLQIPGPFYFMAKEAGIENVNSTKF

[7] = target: T4, OATP4A1 (Homo sapiens, UniProt Q96BD0); assay: Cellular uptake assay, HEK/OATP4A1 vs HEK empty vector cells
T4 sequence (Q96BD0 1-722): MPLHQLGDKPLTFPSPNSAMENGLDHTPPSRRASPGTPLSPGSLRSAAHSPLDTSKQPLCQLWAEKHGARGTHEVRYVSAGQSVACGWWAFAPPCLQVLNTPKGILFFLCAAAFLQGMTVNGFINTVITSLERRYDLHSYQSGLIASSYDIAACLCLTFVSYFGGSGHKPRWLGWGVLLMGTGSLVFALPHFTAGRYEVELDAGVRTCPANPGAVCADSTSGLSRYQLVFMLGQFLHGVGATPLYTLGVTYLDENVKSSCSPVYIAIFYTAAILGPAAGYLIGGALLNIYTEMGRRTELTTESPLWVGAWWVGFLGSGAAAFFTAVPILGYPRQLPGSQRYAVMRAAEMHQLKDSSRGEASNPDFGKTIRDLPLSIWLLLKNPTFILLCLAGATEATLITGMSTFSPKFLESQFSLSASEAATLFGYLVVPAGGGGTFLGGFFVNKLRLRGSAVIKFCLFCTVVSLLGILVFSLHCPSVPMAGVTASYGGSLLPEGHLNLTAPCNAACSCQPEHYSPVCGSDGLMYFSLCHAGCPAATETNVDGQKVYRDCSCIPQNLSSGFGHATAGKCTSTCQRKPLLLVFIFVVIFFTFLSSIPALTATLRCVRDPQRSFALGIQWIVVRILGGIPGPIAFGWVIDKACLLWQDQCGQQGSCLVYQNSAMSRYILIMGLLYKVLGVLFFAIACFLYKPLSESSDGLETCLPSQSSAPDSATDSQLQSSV

Chain of P-gp (P08183 whole entry): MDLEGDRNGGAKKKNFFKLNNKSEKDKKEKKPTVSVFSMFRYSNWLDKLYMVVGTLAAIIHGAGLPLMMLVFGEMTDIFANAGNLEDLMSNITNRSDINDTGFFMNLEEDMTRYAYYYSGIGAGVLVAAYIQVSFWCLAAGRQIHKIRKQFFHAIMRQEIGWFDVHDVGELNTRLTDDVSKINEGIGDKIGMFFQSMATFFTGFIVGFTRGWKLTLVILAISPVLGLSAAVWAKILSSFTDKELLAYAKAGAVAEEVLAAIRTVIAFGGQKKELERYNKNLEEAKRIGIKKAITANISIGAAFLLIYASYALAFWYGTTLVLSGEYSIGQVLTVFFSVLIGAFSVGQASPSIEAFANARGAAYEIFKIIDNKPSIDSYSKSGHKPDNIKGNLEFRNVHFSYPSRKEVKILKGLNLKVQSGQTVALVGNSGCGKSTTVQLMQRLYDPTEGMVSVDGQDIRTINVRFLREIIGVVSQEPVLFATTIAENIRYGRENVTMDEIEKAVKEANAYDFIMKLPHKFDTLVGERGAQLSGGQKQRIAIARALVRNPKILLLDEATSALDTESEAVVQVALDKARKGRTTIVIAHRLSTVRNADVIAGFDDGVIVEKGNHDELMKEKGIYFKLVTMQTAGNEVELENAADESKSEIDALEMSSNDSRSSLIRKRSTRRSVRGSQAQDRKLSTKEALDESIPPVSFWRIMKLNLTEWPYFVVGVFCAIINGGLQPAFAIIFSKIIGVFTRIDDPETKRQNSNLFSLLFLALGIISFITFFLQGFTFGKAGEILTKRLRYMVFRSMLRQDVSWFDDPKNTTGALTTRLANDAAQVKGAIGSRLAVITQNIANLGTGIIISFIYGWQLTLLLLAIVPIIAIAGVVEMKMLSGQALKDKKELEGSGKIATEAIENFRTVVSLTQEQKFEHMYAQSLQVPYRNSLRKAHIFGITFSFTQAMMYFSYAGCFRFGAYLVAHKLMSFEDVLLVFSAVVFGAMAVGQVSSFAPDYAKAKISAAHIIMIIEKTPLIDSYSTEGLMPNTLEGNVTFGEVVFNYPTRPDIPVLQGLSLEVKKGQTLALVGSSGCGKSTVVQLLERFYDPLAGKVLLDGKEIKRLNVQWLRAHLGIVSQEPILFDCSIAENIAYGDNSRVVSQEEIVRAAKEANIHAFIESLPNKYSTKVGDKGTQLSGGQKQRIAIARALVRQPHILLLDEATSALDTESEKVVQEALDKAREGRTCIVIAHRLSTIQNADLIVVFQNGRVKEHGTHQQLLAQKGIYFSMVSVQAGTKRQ

Compound	Pharmacological activity relative to BUP [1]	Substrate of P-gp (conclusion) [2]	Difference in P-gp vesicle uptake between ATP and AMP [2]	Substrate of OATP1B1 (conclusion) [3]	Substrate of OCT1 (conclusion) [4]	Substrate of BCRP (conclusion) [5]	Difference in BCRP vesicle uptake between ATP and AMP [5]	Substrate of MRP2 (conclusion) [6]	Difference in MRP2 vesicle uptake between ATP and AMP [6]	Substrate of OATP4A1 (conclusion) [7]
CC(NC(C)(C)C)C(O)c1cccc(Cl)c1 (stereo not drawn) [EB, Erythrohydrobupropion]	20%	not substrates	No significant differences	not substrates	not substrates	not substrates	No significant differences	not substrates	No significant differences	not substrates
C[C@H]1NC(C)(C)CO[C@]1(O)c1cccc(Cl)c1 [OHB, Hydroxybupropion]	50–100%	not substrates	No significant differences	not substrates	not substrates	not substrates	No significant differences	not substrates	No significant differences	not substrates
C[C@H](NC(C)(C)C)[C@@H](O)c1cccc(Cl)c1 [TB, Threohydrobupropion]	20%	not substrates	No significant differences	not substrates	not substrates	not substrates	No significant differences	not substrates	No significant differences	not substrates
